These results are taken from patent US20230399319A1, “Acylsulfamide Compound and Pharmaceutical Use Therefor” (Japan Tobacco Inc., priority 2019, published 2023).

pIC50: −log10 of the molar value.

NLRP3 inflammasome, sequence (Q96P20 whole entry): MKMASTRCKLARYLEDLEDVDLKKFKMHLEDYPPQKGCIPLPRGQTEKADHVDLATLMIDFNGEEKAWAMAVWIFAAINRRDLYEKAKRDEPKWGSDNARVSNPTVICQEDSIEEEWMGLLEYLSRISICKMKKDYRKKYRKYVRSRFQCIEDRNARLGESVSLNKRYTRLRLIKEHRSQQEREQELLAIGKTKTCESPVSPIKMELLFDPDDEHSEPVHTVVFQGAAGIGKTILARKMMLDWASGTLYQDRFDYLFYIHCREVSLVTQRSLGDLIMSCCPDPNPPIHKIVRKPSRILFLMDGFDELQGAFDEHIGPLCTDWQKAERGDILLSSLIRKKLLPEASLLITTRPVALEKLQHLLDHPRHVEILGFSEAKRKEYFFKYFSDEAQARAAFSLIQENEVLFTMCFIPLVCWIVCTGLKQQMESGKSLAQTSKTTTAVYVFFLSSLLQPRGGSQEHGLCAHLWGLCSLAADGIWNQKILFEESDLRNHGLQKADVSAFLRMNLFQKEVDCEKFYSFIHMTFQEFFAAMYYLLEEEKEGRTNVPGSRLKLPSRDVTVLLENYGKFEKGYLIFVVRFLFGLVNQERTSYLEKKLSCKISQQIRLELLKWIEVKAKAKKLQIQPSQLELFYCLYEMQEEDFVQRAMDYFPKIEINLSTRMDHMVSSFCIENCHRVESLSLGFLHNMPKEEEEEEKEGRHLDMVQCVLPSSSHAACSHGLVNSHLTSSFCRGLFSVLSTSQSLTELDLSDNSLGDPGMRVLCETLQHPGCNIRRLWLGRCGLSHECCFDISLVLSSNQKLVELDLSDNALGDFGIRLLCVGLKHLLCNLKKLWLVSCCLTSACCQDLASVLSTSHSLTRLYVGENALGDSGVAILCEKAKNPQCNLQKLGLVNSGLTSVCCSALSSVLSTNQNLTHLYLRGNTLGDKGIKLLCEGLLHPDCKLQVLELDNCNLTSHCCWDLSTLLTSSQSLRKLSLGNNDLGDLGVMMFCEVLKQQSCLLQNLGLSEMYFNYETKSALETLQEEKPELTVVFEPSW

The first test concerns the target NLRP3 inflammasome (Homo sapiens (Human), UniProt Q96P20). In words: Evaluation of NLRP3 inflammasome inhibitory activity (inhibition of IL-1β production in THP1-Null cells, LPS/Nigericin).
Conditions: not given
A word on the pIC50: it is −log10 of the IC50, conventionally taken in molar units. The low end stands for a large IC50, the high end for a small IC50. In turn, `COC1CCCN(S(=O)(=O)NC(=O)c2coc(Nc3cc(C(F)(F)F)ccc3C)n2)C1` (racemic) [Example 2-159] showed a pIC50 of 7.21. Still for that read-out and setting: the figure for `O=C(NS(=O)(=O)N1CC2CC1CO2)c1coc(Nc2c3c(c(Cl)c4c2CCC4)CCC3)n1` (racemic) [Example 56] is 7.34. Turning to `Cc1ccc(C(F)(F)F)cc1Nc1nc(C(=O)NS(=O)(=O)N2CCCC(O)CC2)co1` (racemic) [Example 2-156], the pIC50 is 7.41. `COC1COCCN(S(=O)(=O)NC(=O)c2coc(Nc3cc(C(F)F)ccc3C)n2)C1` (racemic) [Example 2-331]: the pIC50 is 7.23.

`CCOC1COCCN(S(=O)(=O)NC(=O)c2coc(Nc3cc(C(C)C)ccc3C)n2)C1` (racemic) [Example 2-319] gave a pIC50 of 6.96. Compound `COC1COCCN(S(=O)(=O)NC(=O)c2coc(Nc3cc(C(F)(F)F)ccc3C)n2)C1` (racemic) [Example 2-076] showed a pIC50 of 7.60. `CC(C)C1COCCN1S(=O)(=O)NC(=O)c1cnc(Nc2c3c(cc4c2CCC4)CCC3)o1` (racemic) [Example 10] had a negative-log IC50 (pIC50) of 6.68. As for `COC1CN(S(=O)(=O)CCCF)CCN(S(=O)(=O)NC(=O)c2coc(Nc3cc(C(F)(F)F)ccc3C)n2)C1` (racemic) [Example 2-205], the pIC50 is 7.44. Same read-out and setting: to `COC1CCCN(S(=O)(=O)NC(=O)c2coc(Nc3cc(C(F)(F)F)ccc3C)n2)CC1` (racemic) [Example 2-148] belongs 7.40.

Consider `Cc1ccc(C(F)(F)F)cc1Nc1nc(C(=O)NS(=O)(=O)N2CCOCC(C)C2)co1` (racemic) [Example 2-092], for which the pIC50 is 7.66. The same measure, in the same setting: to `CCCCS(=O)(=O)N1CCN(S(=O)(=O)NC(=O)c2coc(Nc3cc(C(F)(F)F)ccc3C)n2)CC(OC)C1` (racemic) [Example 2-204] belongs 7.54; to `Cc1ccc(C(F)(F)F)cc1Nc1nc(C(=O)NS(=O)(=O)N2CCCC(n3cccn3)CC2)co1` (racemic) [Example 2-273], 7.62.

As to `Cc1ccc(C(F)(F)F)cc1Nc1nc(C(=O)NS(=O)(=O)N2CCC(O)C2)co1` (racemic) [Example 29], the negative logarithm of the IC50 (pIC50) was 6.92.

In the case of `CCN(C)C(=O)C1CCCN(S(=O)(=O)NC(=O)c2coc(Nc3cc(C(F)(F)F)ccc3C)n2)CC1` (racemic) [Example 2-246], the pIC50 is 7.17.

The same test, now with this note: IL-1β production in THP1-Null cells, PMA/LPS primed, Nigericin 7.5 μmol/L.
With `CN(C)C(=O)C1CCN(S(=O)(=O)NC(=O)c2coc(Nc3c4c(c(F)c5c3CCC5)CCC4)n2)CC1` [Example 63], the negative-log IC50 (pIC50) is 6.05.

`CN(C)S(=O)(=O)NC(=O)c1coc(Nc2c3c(c(Cl)c4c2CCC4)CCC3)n1` [Example 28] showed a pIC50 of 6.92. Same read-out and setting: to `O=C(NS(=O)(=O)N1CCCOCC1)c1cnc(Nc2c3c(cc4c2CCC4)CCC3)o1` [Example 4] belongs 7.09.

With `O=C(NS(=O)(=O)N1CC2CCC(C1)O2)c1coc(Nc2c3c(c(F)c4c2CCC4)CCC3)n1` [Example 59], the pIC50 was 7.36. Compound `O=C(NS(=O)(=O)N1C[C@H]2COC[C@H]2C1)c1coc(Nc2c3c(c(F)c4c2CCC4)CCC3)n1` [Example 60] showed a negative logarithm of the IC50 (pIC50) of 6.89.

As for “2-((8-chloro-1,2,3,5,6,7-hexahydro-s-indacen-4-yl)amino)-N—(N,N-dimethylsulfamoyl)oxazole-4-carboxamide [Example 23]”, the pIC50 was above 7.52.

Compound `CN(C)S(=O)(=O)NC(=O)c1coc(Nc2c3c(cc4c2CCC4)CCC3)n1` [Example 13] had a pIC50 of 7.32.

Still in this test, the particulars now being: inhibition of IL-1β production in THP1-Null cells.
For `COCC1CCN(S(=O)(=O)NC(=O)c2coc(Nc3cc(C)ccc3C(C)C)n2)CCO1` (stereo not drawn) [Example 2-309], the pIC50 is 7.41. With `CC(C)c1ccc2c(c1Nc1nc(C(=O)NS(=O)(=O)N(C)C)co1)CCC2` [Example 2-118], the pIC50 was 6.59.

The compound `Cc1ccc2c(c1Nc1nc(C(=O)NS(=O)(=O)N3CCCOCC3)co1)CCC2` [Example 2-097] had a pIC50 of 6.82. The compound `CC(C)c1ccc(C(F)F)cc1Nc1nc(C(=O)NS(=O)(=O)N2CCCOCC2)co1` [Example 2-106] had a pIC50 of 7.36. On the same count and under the same terms, to `Cc1ccc(C(F)(F)F)cc1Nc1nc(C(=O)NS(=O)(=O)N2CCCn3nccc3C2)co1` [Example 2-254] belongs 7.19. The same measure, in the same setting: the figure for `Cc1ccc(C(F)(F)F)cc1Nc1nc(C(=O)NS(=O)(=O)N2CCC(S(=O)(=O)NC(C)C)CC2)co1` [Example 2-007] is above 7.52; for `Cc1ccc(C(C)C)cc1Nc1nc(C(=O)NS(=O)(=O)N2CCOCC2)cs1` [Example 2-055] it is above 7.52; for `CCCS(=O)(=O)N1CCCN(S(=O)(=O)NC(=O)c2coc(Nc3cc(Br)ccc3C)n2)CC1` [Example 2-292] it is 7.47. For the compound `CC(C)c1ccc(C(F)(F)F)nc1Nc1nc(C(=O)NS(=O)(=O)N2CCCOCC2)co1` [Example 2-125], the negative logarithm of the IC50 (pIC50) is 6.60. Consider `COC1COCCN(S(=O)(=O)NC(=O)c2coc(Nc3cc(C(F)(F)F)ccc3C)n2)C1` (single isomer, unassigned) [Example 2-219], for which the pIC50 is 7.54. The compound `CC(C)c1ccc(C(F)F)cc1Nc1nc(C(=O)NS(=O)(=O)N(C)C)co1` [Example 2-105] gave a pIC50 of 7.07. For `Cc1cnn(C2CCCN(S(=O)(=O)NC(=O)c3coc(Nc4cc(C(F)(F)F)ccc4C)n3)CC2)c1` (stereo not drawn) [Example 2-298], the pIC50 is 7.17. Take `Cc1cc(C#N)c(C(F)(F)F)cc1Nc1nc(C(=O)NS(=O)(=O)N2CCCOCC2)co1` [Example 2-142]: the pIC50 was 5.20. For the compound `Cc1ccc2c(c1Nc1nc(C(=O)NS(=O)(=O)N3CCOCC3)cs1)CCC2` [Example 2-084], the pIC50 is 6.85. In turn, `CC(C)c1ccc2c(c1Nc1nc(C(=O)NS(=O)(=O)N3CCCOCC3)co1)CCC2` [Example 2-119] showed a pIC50 of 7.02. Same read-out and setting: the figure for `Cc1ccc(C(F)F)cc1Nc1nc(C(=O)NS(=O)(=O)N2CCOC(COC(F)F)CC2)co1` (stereo not drawn) [Example 2-328] is 7.52; for `CCCS(=O)(=O)N1CCCN(S(=O)(=O)NC(=O)c2coc(Nc3cc(C(F)F)ccc3C)n2)CC1` [Example 2-270] it is 8.01; for `Cc1ccc(C2CC2)cc1Nc1nc(C(=O)NS(=O)(=O)N2CCOCC2)co1` [Example 2-001] it is 7.20. Still for that read-out and setting: the figure for `CC(C)c1nn(C(C)C)cc1Nc1nc(C(=O)NS(=O)(=O)N2CCCN(S(=O)(=O)CC(C)(C)C)CC2)co1` [Example 2-170] is 6.22; for `CC(C)c1cn(C(C)C)nc1Nc1nc(C(=O)NS(=O)(=O)N2CCCOCC2)co1` [Example 2-116] it is 7.07. `CCOCC1CCN(S(=O)(=O)NC(=O)c2coc(Nc3cc(C(C)C)ccc3C)n2)CCO1` (stereo not drawn) [Example 2-325] gave a pIC50 of 7.60. Same read-out and setting: the figure for `Cc1ccc(C(C)C)cc1Nc1nc(C(=O)NS(=O)(=O)N2CCOC(COC(F)F)CC2)co1` (stereo not drawn) [Example 2-326] is 7.59. With `Cc1ccc2c(c1Nc1nc(C(=O)NS(=O)(=O)N3CCCOCC3)cs1)CCC2` [Example 2-085], the pIC50 was 6.92. On the same count and under the same terms, to `CCOCC1CCN(S(=O)(=O)NC(=O)c2coc(Nc3cc(C(F)F)ccc3C)n2)CCO1` (stereo not drawn) [Example 2-332] belongs 7.66; to `Cc1ccc(C(C)(F)F)cc1Nc1nc(C(=O)NS(=O)(=O)N(C)C)co1` [Example 2-013], 7.19; to `Cc1cnc(C(F)(F)F)cc1Nc1nc(C(=O)NS(=O)(=O)N2CCCOCC2)co1` [Example 2-075], 5.35.

Staying with this test, now noted: read-out: % inhibition at 3 μM.
By inhibition is commonly meant the drop in the measured response relative to a control, in per cent. Consider `Cc1cnc(C)c(Nc2nc(C(=O)NS(=O)(=O)N(C)C)co2)n1` [Example 2-086], for which the inhibition at 3 µM stood at 17%.
